Tests used:
[1] = target: T1, Serine/threonine-protein kinase RIO3 (Homo sapiens) (UniProt O14730); test: Selectivity interaction (KinomeScan (DiscoverX)) EUB0000229b RIOK3; conditions: at 10 µM
T1 sequence (whole entry): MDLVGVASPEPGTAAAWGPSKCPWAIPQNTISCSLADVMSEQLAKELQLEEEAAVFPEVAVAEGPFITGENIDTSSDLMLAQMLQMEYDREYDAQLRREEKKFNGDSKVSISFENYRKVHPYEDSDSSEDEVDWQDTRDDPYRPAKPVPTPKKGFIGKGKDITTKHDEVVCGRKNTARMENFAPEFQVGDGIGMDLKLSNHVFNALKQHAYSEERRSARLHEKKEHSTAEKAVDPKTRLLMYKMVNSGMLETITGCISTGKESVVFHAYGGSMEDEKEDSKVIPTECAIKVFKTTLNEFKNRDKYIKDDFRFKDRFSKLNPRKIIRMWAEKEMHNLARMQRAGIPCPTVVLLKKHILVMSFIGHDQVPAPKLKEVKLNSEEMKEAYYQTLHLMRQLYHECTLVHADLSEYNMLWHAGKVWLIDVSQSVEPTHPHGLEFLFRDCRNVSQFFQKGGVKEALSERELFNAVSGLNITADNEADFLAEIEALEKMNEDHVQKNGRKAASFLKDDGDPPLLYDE

[2] = target: Serine/threonine-protein kinase 38 (Homo sapiens) (UniProt Q15208); test: Selectivity interaction (KinomeScan (DiscoverX)) EUB0000092b STK38; conditions: at 10 µM
Sequence of Serine/threonine-protein kinase 38 (Homo sapiens) (Q15208 2-465 limits assumed): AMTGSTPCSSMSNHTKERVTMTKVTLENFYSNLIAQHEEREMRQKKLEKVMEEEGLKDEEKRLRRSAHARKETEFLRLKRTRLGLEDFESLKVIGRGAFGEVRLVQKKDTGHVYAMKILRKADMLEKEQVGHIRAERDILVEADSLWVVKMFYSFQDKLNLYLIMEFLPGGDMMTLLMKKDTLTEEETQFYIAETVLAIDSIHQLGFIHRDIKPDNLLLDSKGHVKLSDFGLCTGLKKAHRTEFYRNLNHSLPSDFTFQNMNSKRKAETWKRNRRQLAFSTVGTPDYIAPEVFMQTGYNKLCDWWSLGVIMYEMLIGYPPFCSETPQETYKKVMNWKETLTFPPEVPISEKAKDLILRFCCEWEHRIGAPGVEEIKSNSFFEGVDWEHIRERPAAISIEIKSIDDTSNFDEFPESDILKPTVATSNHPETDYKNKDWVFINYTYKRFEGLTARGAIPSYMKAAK

[3] = target: Homeodomain-interacting protein kinase 3 (Homo sapiens, UniProt Q9H422); conditions: at 10 µM
Sequence of Homeodomain-interacting protein kinase 3 (Q9H422 whole entry, looked up): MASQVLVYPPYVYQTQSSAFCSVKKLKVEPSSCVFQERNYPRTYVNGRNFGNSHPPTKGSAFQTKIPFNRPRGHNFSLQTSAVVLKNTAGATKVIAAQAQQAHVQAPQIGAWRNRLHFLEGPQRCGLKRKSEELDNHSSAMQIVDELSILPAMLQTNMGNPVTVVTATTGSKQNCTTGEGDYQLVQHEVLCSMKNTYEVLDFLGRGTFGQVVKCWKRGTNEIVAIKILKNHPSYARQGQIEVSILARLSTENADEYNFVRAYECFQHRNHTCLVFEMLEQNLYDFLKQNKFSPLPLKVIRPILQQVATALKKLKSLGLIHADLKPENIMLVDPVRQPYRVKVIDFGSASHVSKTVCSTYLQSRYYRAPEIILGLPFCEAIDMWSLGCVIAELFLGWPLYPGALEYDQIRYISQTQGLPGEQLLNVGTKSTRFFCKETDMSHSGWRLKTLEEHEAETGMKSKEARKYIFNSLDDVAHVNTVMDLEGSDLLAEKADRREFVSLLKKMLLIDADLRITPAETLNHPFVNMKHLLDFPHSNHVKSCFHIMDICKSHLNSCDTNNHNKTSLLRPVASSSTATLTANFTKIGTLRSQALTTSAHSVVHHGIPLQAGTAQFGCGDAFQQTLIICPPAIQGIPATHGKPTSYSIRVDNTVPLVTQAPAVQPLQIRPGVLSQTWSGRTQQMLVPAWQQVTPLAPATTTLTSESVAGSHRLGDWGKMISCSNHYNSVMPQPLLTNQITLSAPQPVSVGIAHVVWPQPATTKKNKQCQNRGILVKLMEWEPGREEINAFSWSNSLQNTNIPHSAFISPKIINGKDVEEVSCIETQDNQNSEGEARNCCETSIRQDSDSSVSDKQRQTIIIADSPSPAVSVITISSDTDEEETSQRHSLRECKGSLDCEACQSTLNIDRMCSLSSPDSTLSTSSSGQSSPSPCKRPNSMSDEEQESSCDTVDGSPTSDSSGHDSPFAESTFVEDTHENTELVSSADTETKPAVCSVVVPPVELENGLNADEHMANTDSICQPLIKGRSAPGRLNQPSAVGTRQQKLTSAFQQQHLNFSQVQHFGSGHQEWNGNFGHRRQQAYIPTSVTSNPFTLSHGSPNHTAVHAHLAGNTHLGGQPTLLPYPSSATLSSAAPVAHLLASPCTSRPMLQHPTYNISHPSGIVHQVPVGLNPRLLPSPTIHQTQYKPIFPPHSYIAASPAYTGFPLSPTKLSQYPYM

[4] = target: Tyrosine-protein kinase CSK (Homo sapiens) (UniProt P41240); test: Selectivity interaction (ActivX KiNativ screen (kinase selectivity in THP-1 cell lysates)) EUB0000639a CSK; assay type: subcellular; conditions: lysate, at 1 µM
Sequence of Tyrosine-protein kinase CSK (Homo sapiens) (P41240 2-450 limits assumed): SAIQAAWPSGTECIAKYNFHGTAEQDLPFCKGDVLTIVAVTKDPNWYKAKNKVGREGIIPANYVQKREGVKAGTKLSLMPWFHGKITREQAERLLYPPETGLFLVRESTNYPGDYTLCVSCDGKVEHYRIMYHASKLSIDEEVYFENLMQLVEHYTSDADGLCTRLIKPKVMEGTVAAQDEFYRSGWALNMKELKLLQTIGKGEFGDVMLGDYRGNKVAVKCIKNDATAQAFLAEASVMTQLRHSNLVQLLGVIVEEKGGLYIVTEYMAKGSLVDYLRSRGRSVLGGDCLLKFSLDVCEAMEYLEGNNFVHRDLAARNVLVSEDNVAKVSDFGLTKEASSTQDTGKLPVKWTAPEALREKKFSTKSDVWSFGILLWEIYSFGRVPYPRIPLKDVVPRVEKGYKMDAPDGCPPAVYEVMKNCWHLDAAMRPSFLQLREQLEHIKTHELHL

[5] = target: T2, MAP/microtubule affinity-regulating kinase 4 (Homo sapiens) (UniProt Q96L34); test: Selectivity interaction (ActivX KiNativ screen (kinase selectivity in THP-1 cell lysates)) EUB0000639a MARK4; assay type: subcellular; conditions: lysate, at 0.2 µM
T2 sequence (whole entry): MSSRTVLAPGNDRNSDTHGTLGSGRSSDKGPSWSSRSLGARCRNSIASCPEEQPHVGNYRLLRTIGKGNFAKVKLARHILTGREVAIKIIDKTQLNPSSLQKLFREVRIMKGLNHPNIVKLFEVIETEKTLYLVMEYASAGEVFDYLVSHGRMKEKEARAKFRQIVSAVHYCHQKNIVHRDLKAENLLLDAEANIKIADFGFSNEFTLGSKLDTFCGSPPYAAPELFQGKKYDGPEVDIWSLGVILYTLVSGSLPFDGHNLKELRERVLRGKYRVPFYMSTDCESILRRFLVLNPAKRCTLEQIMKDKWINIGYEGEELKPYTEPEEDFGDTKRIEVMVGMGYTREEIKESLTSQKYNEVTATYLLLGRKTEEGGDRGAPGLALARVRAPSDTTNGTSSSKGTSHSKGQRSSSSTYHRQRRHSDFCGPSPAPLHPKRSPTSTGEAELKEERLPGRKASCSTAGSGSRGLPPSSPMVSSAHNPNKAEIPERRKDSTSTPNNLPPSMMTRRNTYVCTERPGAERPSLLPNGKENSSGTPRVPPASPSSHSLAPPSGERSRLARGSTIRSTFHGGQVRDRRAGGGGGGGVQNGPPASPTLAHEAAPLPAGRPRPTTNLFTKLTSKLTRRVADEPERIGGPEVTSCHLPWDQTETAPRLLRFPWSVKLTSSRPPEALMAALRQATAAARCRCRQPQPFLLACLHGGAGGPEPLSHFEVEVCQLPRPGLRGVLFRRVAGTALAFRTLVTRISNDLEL

[6] = target: T3, Mitogen-activated protein kinase kinase kinase 5 (Homo sapiens) (UniProt Q99683); test: Selectivity interaction (KinomeScan (DiscoverX)) EUB0000607a MAP3K5; conditions: at 10 µM
T3 sequence (whole entry): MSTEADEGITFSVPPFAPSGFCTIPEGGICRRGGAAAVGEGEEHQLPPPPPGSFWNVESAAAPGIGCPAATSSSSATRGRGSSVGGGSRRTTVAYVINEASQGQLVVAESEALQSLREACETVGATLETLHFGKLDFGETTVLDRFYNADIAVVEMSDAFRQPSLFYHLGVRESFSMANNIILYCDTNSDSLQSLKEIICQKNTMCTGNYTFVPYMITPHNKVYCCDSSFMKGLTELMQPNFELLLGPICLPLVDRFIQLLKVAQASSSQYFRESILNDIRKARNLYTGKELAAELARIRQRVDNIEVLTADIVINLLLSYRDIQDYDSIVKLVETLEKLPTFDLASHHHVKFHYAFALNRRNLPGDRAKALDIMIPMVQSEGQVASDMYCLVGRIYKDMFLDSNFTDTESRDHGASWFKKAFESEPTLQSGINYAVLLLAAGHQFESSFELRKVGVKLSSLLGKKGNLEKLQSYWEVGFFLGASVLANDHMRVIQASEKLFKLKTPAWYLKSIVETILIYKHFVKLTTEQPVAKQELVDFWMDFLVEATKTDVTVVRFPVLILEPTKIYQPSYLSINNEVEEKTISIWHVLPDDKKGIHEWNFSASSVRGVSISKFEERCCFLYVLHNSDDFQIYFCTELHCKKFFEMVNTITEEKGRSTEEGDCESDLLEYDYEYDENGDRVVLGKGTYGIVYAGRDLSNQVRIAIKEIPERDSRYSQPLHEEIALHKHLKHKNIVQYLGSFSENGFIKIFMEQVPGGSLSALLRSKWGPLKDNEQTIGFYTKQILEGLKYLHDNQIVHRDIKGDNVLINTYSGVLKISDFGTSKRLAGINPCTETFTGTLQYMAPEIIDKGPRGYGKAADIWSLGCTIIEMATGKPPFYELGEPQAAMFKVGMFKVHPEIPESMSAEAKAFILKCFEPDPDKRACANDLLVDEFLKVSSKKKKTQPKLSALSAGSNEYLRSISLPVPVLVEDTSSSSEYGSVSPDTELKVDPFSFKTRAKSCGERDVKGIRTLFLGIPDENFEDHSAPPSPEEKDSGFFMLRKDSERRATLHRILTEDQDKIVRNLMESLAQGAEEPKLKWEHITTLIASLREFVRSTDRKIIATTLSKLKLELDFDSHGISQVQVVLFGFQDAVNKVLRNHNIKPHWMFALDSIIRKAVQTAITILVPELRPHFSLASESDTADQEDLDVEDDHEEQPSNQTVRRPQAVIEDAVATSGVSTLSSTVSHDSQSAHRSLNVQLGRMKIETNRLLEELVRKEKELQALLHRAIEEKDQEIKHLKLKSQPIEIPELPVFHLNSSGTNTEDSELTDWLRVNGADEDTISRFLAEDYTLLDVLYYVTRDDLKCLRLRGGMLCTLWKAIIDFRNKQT

[7] = target: Mitogen-activated protein kinase kinase kinase kinase 4 (Homo sapiens, UniProt O95819); test: Selectivity interaction (SelectScreen profiling (Invitrogen)) EUB0000607a MAP4K4; conditions: at 2 µM
Sequence of Mitogen-activated protein kinase kinase kinase kinase 4 (O95819 2-1239 limits assumed): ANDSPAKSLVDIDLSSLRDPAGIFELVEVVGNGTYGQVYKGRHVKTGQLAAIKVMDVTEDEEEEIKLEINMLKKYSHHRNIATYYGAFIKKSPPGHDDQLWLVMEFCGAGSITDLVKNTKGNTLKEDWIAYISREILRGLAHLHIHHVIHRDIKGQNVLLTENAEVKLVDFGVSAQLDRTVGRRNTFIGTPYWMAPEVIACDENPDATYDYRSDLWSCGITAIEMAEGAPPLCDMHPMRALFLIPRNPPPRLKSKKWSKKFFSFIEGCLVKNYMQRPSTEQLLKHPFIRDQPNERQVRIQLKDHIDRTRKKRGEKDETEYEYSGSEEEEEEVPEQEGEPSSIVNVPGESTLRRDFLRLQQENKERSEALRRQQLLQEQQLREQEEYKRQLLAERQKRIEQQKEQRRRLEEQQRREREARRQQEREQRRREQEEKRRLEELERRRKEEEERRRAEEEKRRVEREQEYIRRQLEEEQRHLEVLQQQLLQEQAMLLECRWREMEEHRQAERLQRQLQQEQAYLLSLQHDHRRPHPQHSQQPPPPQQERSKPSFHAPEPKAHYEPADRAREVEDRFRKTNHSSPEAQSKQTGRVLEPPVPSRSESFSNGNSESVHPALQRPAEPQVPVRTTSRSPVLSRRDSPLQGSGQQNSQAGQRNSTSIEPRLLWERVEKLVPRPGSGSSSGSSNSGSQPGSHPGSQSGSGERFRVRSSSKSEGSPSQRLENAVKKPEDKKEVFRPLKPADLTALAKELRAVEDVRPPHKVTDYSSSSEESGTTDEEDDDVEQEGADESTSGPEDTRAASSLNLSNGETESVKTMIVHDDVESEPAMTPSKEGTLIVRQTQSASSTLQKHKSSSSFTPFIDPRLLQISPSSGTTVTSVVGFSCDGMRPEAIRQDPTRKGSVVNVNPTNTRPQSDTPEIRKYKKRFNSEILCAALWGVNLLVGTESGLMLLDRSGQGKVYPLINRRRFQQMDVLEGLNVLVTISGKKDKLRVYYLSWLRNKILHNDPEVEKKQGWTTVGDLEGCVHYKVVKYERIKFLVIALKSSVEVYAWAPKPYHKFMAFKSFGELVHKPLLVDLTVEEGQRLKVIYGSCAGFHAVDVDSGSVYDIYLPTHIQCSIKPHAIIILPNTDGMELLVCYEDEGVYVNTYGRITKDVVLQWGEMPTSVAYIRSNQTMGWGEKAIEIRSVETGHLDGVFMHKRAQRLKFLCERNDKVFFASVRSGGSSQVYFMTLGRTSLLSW

Work on `COc1cc(N(C)c2ccnc3ccc(C(F)(F)F)cc23)cc(OC)c1OC` yielded a % binding [1] of 90%.

For `CCC(=O)N1CCN(c2ccc(-n3c(=O)ccc4cnc5ccc(-c6cnc7ccccc7c6)cc5c43)cc2C(F)(F)F)CC1`, the % of control [2] was 100%.

`Cc1cc([C@@H](C)Nc2ccccc2C(=O)O)c2nc(N3CCOCC3)cc(=O)n2c1` [AZD-6482] was tested, and the % of control [3] was 89%.

Work on `CC[C@@H]1[C@H](F)C(=O)N[C@@H]1COc1nccc2cc(C(N)=O)c(OC)cc12` [ZIMLOVISERTIB] yielded a % of inhibition [4] of 0.5% and a % of inhibition [5] of 13.2%.

`CNC(=O)Nc1ccc(-c2nc(N3CC4CCC(C3)O4)c3cnn(C4CCC5(CC4)OCCO5)c3n2)cc1` was tested, and the % of control [6] was 85% and the % of inhibition [7] was 10%.
